Measured values taken from patent publication US9512128B2 (BAYER CROPSCIENCE AG, priority 2012, dated 2016).
Where two headings read alike, the source gives them in different places.

Experiment: log P by HPLC on reversed-phase columns (C 18), EEC directive 79/831 Annex V.A8
Assay type: physicochemical
Settings: for logP[a]: method [a]; for logP[b]: method [b]
Description: The log P values were determined according to EEC directive 79/831 Annex V.A8 by HPLC (High Performance Liquid Chromatography) on reversed-phase columns (C 18), using the methods below:
[a] The LC-MS determination in the acidic range is carried out at pH 2.7 with 0.1% aqueous formic acid and acetonitrile (contains 0.1% formic acid) as mobile phases; linear gradient from 10% acetonitrile to 95% acetonitrile.
[b] The LC-MS determination in the neutral range is carried out at pH 7.8 using the mobile phases 0.001 molar aqueous ammonium bicarbonate solution and acetonitrile; linear gradient from 10% acetonitrile to 95% acetonitrile.

[1] = reversed-phase C18 HPLC column, pH 2.7, acidic range, pH 2.7, 0.1% aqueous formic acid / acetonitrile, read-out: log P[a]
[2] = reversed-phase C18 HPLC column, pH 7.8, neutral range, pH 7.8, 0.001 molar aqueous ammonium bicarbonate / acetonitrile, read-out: log P[b]
[3] = acidic range, pH 2.7, 0.1% aqueous formic acid / acetonitrile, read-out: log P[a]
[4] = neutral range, pH 7.8, 0.001 molar aqueous ammonium bicarbonate / acetonitrile, read-out: log P[b]

Row | chromatographic logP [1] | chromatographic logP [2] | logP[a] | logP[b] | Compound | also measured
1 | 4.44 | 4.44 |  |  | Cc1cc(F)c(I)cc1SCC(F)(F)F [VIIa-1-I, 1-Fluoro-2-iodo-5-methyl-4-[(2,2,2-trifluoroethyl)sulphanyl]benzene] | 
2 |  |  | 3.20 | 3.13 | Cc1cc(F)c(-n2cnc3c(Cl)c(Cl)sc3c2=O)cc1[S+]([O-])CC(F)(F)F (stereo not drawn) [Compound 115] | 
3 |  |  | 2.94 | 2.94 | Cn1ncc2c(=O)n(-c3cc(SCC(F)(F)F)c(Cl)cc3Cl)cnc21 [Compound 3] | 
4 |  |  | 2.45 | 2.36 | Cc1c2c(=O)n(-c3ccc(Cl)c(SCC(F)(F)F)c3)cnc2nn1C [Compound 48] | 
5 |  |  | 1.80 | 1.80 | Cn1ncc2c(=O)n(-c3ccc(Cl)c([S+]([O-])CC(F)(F)F)c3)cnc21 (racemic) [Compound 28] | 
6 |  |  | 1.52 | 1.50 | Cc1cc(C)c([S+]([O-])CC(F)(F)F)cc1-n1c(C)nc2c(ncn2C)c1=O (racemic) [Compound 59] | 
7 |  |  | 2.52 |  | Cc1cc(F)c(-n2c(C)nc3c(cnn3CC(F)(F)F)c2=O)cc1[S+]([O-])CC(F)(F)F (racemic) [Compound 22] | 
8 | 2.44 | 2.23 |  |  | Cc1cc(F)c(NC(=O)c2cnn(C)c2N)cc1SCC(F)(F)F [5-Amino-N-{2-fluoro-4-methyl-5-[(2,2,2-trifluoroethyl)sulphanyl]phenyl}-1-methyl-1H-pyrazole-4-carboxamide] | 
9 |  |  | 4.38 | 4.24 | Cc1cc(F)c(-n2cnc3c(Cl)c(Cl)sc3c2=O)cc1SCC(F)(F)F [Compound 111] | 
10 | 2.84 | 2.79 |  |  | Cc1cc(F)c(-n2c(C)nc3c(cnn3C)c2=O)cc1SCC(F)(F)F [Compound 14, 5-{2-Fluoro-4-methyl-5-[(2,2,2-trifluoroethyl)sulphanyl]phenyl}-1,6-dimethyl-1,5-dihydro-4H-pyrazolo[3,4-d]pyrimidin-4-one] | chromatographic logP (reversed-phase C18 HPLC column, pH 2.7, method [a], read-out: logP[a]): 2.84; chromatographic logP (reversed-phase C18 HPLC column, pH 7.8, method [b], read-out: logP[b]): 2.79
11 | 2.34 | 2.41 |  |  | Cc1cc(F)c(B(O)O)cc1SCC(F)(F)F [VIIIa-1, {2-Fluoro-4-methyl-5-[(2,2,2-trifluoroethyl)sulphanyl]phenyl}boronic acid] | 
12 | 1.64 |  |  |  | Nc1ccc(Cl)c(S)c1 [XVI-3, 5-Amino-2-chlorobenzenethiol] | 
13 | 2.64 | 2.69 |  |  | Nc1ccc(Cl)c(SCC(F)(F)F)c1 [IVa-3, 4-Chloro-3-[(2,2,2-trifluoroethyl)sulphanyl]aniline] | 
14 |  |  | 2.67 | 2.64 | Cc1cc(C)c(-n2cnc3scnc3c2=O)cc1SCC(F)(F)F [Compound 62] | 
15 |  |  | 2.19 | 2.17 | Cn1cnc2c(=O)n(-c3cc(SCC(F)(F)F)c(Cl)cc3F)cnc21 [Compound 57] | 
16 |  |  | 3.50 | 3.42 | Cc1cc(F)c(-n2cnc3ccsc3c2=O)cc1SCC(F)(F)F [Compound 109] | 
17 |  |  |  |  | O=[N+]([O-])c1cc(SSc2cc([N+](=O)[O-])c(Cl)cc2Cl)c(Cl)cc1Cl [XIX-6, 1,1′-Disulphanediylbis(2,4-dichloro-5-nitrobenzene)] | chromatographic logP [3]: 5.69; chromatographic logP [4]: 5.64
18 | 3.73 | 3.74 |  |  | Cc1ccc(Br)cc1S(=O)(=O)Cl [5-Bromo-2-methylbenzenesulphonyl chloride] | 
19 | 3.73 | 3.74 |  |  | Cc1ccc(B2OC(C)(C)C(C)(C)O2)cc1SCC(F)(F)F [4,4,5,5-Tetramethyl-2-{4-methyl-3-[(2,2,2-trifluoroethyl)sulphanyl]phenyl}-1,3,2-dioxaborolane] | 
20 | 2.4 |  |  |  | Cc1ccc(NC(=O)C(F)(F)F)c(F)c1 [XIII-1, 2,2,2-Trifluoro-N-(2-fluoro-4-methylphenyl)acetamide] | 
21 | 4.6 | 3.82 |  |  | O=C(Nc1cc(SSc2cc(NC(=O)C(F)(F)F)c(F)cc2Cl)c(Cl)cc1F)C(F)(F)F [XI-2, N,N′-[Disulphanediylbis(4-chloro-6-fluorobenzene-3,1-diyl)]bis(2,2,2-trifluoroacetamide)] | 
22 | 3.46 | 3.41 |  |  | O=C(Nc1ccc(Cl)c(SCC(F)(F)F)c1)C(F)(F)F [Compound X-3, N-{4-Chloro-3-[(2,2,2-trifluoroethyl)sulphanyl]phenyl}-2,2,2-trifluoroacetamide] | 
23 | 3 | 2.95 |  |  | Nc1cc(SCC(F)(F)F)ccc1Cl [IVa-4, 2-Chloro-5-[(2,2,2-trifluoroethyl)sulphanyl]aniline] | 
24 |  |  | 2.22 | 2.17 | Cc1nc2c(=O)n(-c3cc([S+]([O-])CC(F)(F)F)c(Cl)cc3Cl)cnc2s1 (stereo not drawn) [Compound 74] | 
25 |  |  | 1.74 | 1.70 | Cc1nn(C)c2ncn(-c3ccc(C#N)c([S+]([O-])CC(F)(F)F)c3)c(=O)c12 (stereo not drawn) [Compound 35] | 
26 |  |  | 3.09 | 3.02 | Cc1nc2c(=O)n(-c3cc(SCC(F)(F)F)c(Cl)cc3Cl)cnc2s1 [Compound 71] | 

Row | chromatographic logP [1] | chromatographic logP [2] | logP[a] | logP[b] | Compound | also measured
27 | 3.31 |  |  |  | Cc1cc(F)c(NC(=O)C(F)(F)F)cc1SCC(F)(F)F [Compound X-1, 2,2,2-Trifluoro-N-{2-fluoro-4-methyl-5-[(2,2,2-trifluoroethyl)sulphanyl]phenyl}acetamide] | 
28 | 3.34 | 3.14 |  |  | O=C(Nc1cc(SCC(F)(F)F)c(Cl)cc1F)C(F)(F)F [Compound X-2, N-{4-Chloro-2-fluoro-5-[(2,2,2-trifluoroethyl)sulphanyl]phenyl}-2,2,2-trifluoroacetamide] | 
29 |  |  | 1.65 | 1.62 | Cc1cc(C)c([S+]([O-])CC(F)(F)F)cc1-n1cnc2ncsc2c1=O (stereo not drawn) [Compound 81] | 
30 | 2.57 | 2.53 |  |  | Nc1cc(SCC(F)(F)F)ccc1F [IVa-5, 2-Fluoro-5-[(2,2,2-trifluoroethyl)sulphanyl]aniline] | 
31 | 1.78 |  |  |  | CC(=O)Nc1cc(SC(C)=O)c(C)cc1F [XVII-1, S-(5-Acetamido-4-fluoro-2-methylphenyl)ethanethioate] | 
32 |  |  | 3.27 | 3.21 | O=c1c2ccsc2ncn1-c1ccc(C(F)(F)F)c(SCC(F)(F)F)c1 [Compound 94] | 
33 | 4.3 | 4.34 |  |  | Cc1cc(F)c(Br)cc1SCC(F)(F)F [VIIa-1, 1-Bromo-2-fluoro-4-methyl-5-[(2,2,2-trifluoroethyl)sulphanyl]benzene] | 
34 |  |  | 2.54 | 2.51 | O=c1c2ccsc2ncn1-c1ccc(C(F)(F)F)c([S+]([O-])CC(F)(F)F)c1 (stereo not drawn) [Compound 99] | 
35 |  |  | 2.16 | 2.11 | Cn1ncc2c(=O)n(-c3ccc(C(F)(F)F)c([S+]([O-])CC(F)(F)F)c3)cnc21 (racemic) [Compound 29] | 
36 |  |  | 2.07 | 2.06 | Cn1ncc2c(=O)n(-c3ccc(C#N)c(SCC(F)(F)F)c3)cnc21 [Compound 24] | 
37 | 2.98 | 2.97 |  |  | Nc1cc(SSc2ccc(F)c(N)c2)ccc1F [XVIII-5, 3,3′-Disulphanediylbis(6-fluoroaniline)] | 
38 |  |  | 2.01 | 1.98 | O=c1c2scnc2ncn1-c1cc([S+]([O-])CC(F)(F)F)c(Cl)cc1Cl (stereo not drawn) [Compound 80] | 
39 | 1.77 | 1.72 |  |  | Cc1cc(F)c(N)cc1[S+]([O-])CC(F)(F)F (stereo not drawn) [IVb-1, 2-Fluoro-4-methyl-5-[(2,2,2-trifluoroethyl)sulphinyl]aniline] | 
40 | 4.29 | 4.26 |  |  | Cc1ccc(Br)cc1SCC(F)(F)F [VIIa-7, 5-Bromo-2-methylphenyl-2,2,2-trifluoroethyl sulphide] | 
41 |  |  | 2.37 | 2.31 | N#Cc1ccc(-n2cnc3ccsc3c2=O)cc1SCC(F)(F)F [Compound 102] | 
42 |  |  | 2.87 | 2.79 | Cc1ccc(-n2cnc3ccsc3c2=O)cc1SCC(F)(F)F [Compound 100] | 
43 |  |  | 2.79 | 2.76 | O=c1c2scnc2ncn1-c1cc(SCC(F)(F)F)c(Cl)cc1Cl [Compound 77] | 
44 |  |  | 2.48 | 2.46 | N#Cc1ccc(-n2cnc3sccc3c2=O)cc1SCC(F)(F)F [Compound 93] | 
45 |  |  | 3.06 | 2.99 | Cc1nn(C)c2ncn(-c3ccc(C(F)(F)F)c(SCC(F)(F)F)c3)c(=O)c12 [Compound 31] | 
46 |  |  |  |  | O=C(Nc1ccc(Cl)cc1F)C(F)(F)F [XIII-2, N-(4-Chloro-2-fluorophenyl)-2,2,2-trifluoroacetamide] | chromatographic logP [3]: 2.53; chromatographic logP [4]: 2.4
47 |  |  | 2.82 | 2.75 | Cn1ncc2c(=O)n(-c3ccc(C(F)(F)F)c(SCC(F)(F)F)c3)cnc21 [Compound 25] | 
48 |  |  | 1.82 | 1.81 | Cc1ccc(-n2cnc3ccsc3c2=O)cc1[S+]([O-])CC(F)(F)F (stereo not drawn) [Compound 101] | 
49 |  |  | 2.38 | 2.33 | Cc1ccc(-n2cnc3nn(C)c(C)c3c2=O)cc1SCC(F)(F)F [Compound 44] | 
50 |  |  | 3.83 | 3.77 | Cc1cc(C)c(-n2c(C(F)(F)F)nc3c(cnn3C)c2=O)cc1SCC(F)(F)F [Compound 11] | 
51 |  |  | 3.31 | 3.21 | Cc1cc(F)c(-n2cnc3c(cnn3CC(F)(F)F)c2=O)cc1SCC(F)(F)F [Compound 17] | 
